“And” between values parts separate entries of the source, which are not always exact repeats. Identical values can stand only once.
Legend:
[1] = system: human α1β2γ2-GABA-A receptors; experiment: Electrophysiological studies, automated patch clamp (QPatch16X), HEK293 cells; type: cell-based; conditions: agonist mode, compound at 10 μM; current amplitude normalized to 10 μM GABA response; ±S.E.M.
Description: Electrophysiological studies were acquired using the QPatch16X automatic patch clamp platform (Sophion Biosciences) as described before.[42],[43] […] Before the assay, cells were detached from the culture flask by treating them with TrypLE Express solution (Life Technologies) and subsequently suspended in serum-free media. The cells were loaded into a 1.5 mL microtube on the automated electrophysiology instrument, which subsequently performed a spin-down using its built-in centrifuge. Following this, the cells were washed with Ringer’s extracellular solution. The cells were moved to the pipetting wells of a 16-channel planar patch chip plate (QPlate 16X) designed for single-use. A combined suction/voltage protocol was then applied to establish gigaseals. […] During the entire whole-cell recording, the holding potential was maintained at −90 mV. […] The intracellular solution contained 140 mM CsF, 1 mM EGTA, 5 mM CsOH, 10 mM HEPES, 20 mMNaCl (pH 7.2, 320 mOsm). […] The acquired data were examined with QPatch assay software (v5.0, Sophion Biosciences)[44] and are represented as the mean of three separated measurements performed on distinct cells. The efficacy of the tested molecules was determined by calculating the baseline-corrected ratio of the maximum current amplitudes elicited by the tested compounds and the reference agonist (T1-ATG/AG1-ATG or T2-ATG/AG1-ATG). The raw current recordings were standardized and presented as a percentage of the current amplitude evoked by the reference agonist, using the QPatch assay software (v5.0, Sophion Biosciences).

[2] = Stability under radioligand binding assay conditions (incubation with brain tissue); type: in vitro ADME; conditions: after 1 h of incubation with brain tissue
[3] = target: 5-HT6 receptor (Homo sapiens, UniProt P50406); experiment: Radioligand binding assay for 5-HT6 receptor ([3H]-LSD displacement); set-up: expressed in transfected cells; host or cells: HEK-293 (cryopreserved membranes); conditions: competitive replacement of [3H]-LSD; ±S.E.M.; read-out: 5-HT6R Ki
[4] = Brain tissue stability assay; type: in vitro ADME; conditions: brain homogenate in Tris-HCl buffer
Description: (§1) The quantitative HPLC analyses were acquired using Waters Alliance e2695 separations module (Waters, Milford, CT, USA) containing 2998 photodiode array (PDA), a detector (Waters, Milford, CT, USA), and the SpeedROD RP-18e 50–4.6 mm column (Merck, KGaA, Darmstadt, Germany). The temperature of the column was preserved at 30 °C. […] Each sample was injected at a volume of 10 μL in triplicate. […] The stock solutions were mixed with methanol and diluted, resulting in various solutions with concentrations ranging from 1.0 to 0.125 μg/mL. These solutions were then utilized to generate calibration curves by plotting AUC versus concentration in μg/mL. The examined molecules (2 mg) were dissolved in 1 mL of Dulbecco’s phosphate buffered saline (DPBS). The mixture was then continuously agitated at 22 °C for 24 h using a thermoshaker. Following this period, the mixtures were filtered through a cellulose acetate syringe filter (with a pore size of 0.22 μm), moved to a chromatographic vial, and analyzed. To quantify the investigated compounds, the areas beneath their respective peaks on DAD chromatograms were employed. Solubility was calculated using the calibration curves. Chemical stability assay: Stock solution of 16 in DMSO (10 mg/mL) was used. Next, 25 μL of stock solution was mixed with 975 μL of PBS (Dulbecco’s phosphate-buffered saline, Sigma, Poland). […] HPLC analyses were used to quantify the percentage of molecules that remained at each time point relative to the 0 min time point. Brain tissue stability assay: […] Then, 50 μL of the stock solution was combined with 50 μL of ice-cold 50 mM Tris-HCl buffer (pH 7.4) and 150 μL of brain homogenate (suspended in 20 volumes of 50 mM Tris-HCl buffer, ice cold, pH 7.4). The mix was then incubated at 37 °C and quenched at several time points. To terminate the reaction mixture, 250 μL of the appropriate reaction mixture was mixed with 1000 μL of MeCM in the Eppendorf Tube. Following 10 min of shaking (1500 rpm), samples were centrifuged (10 000 rpm, 10 min, 4 °C) and the acquired supernatant was collected. Before conducting HPLC analysis, the supernatant was filtered via a cellulose acetate syringe filter with a pore size of 0.45 μm and then transferred to a chromatographic vial. HPLC analysis was used to determine the percentage of the tested molecule remaining at each time point, relative to the 0 min time point. Plasma stability assay was performed as described previously.[45] Frozen rat plasma (Wistar) was thawed. […] The samples were collected at relative time points. The reaction was terminated by adding 1200 of μL acetonitrile/methanol mixture (50:50, v/v). The samples were centrifuge at 25 000 rpm for 10 min. HPLC analysis was used to determine the percentage of the tested molecule remaining at each time point relative to the 0 min time point. All the experiments were performed in duplicate.

[5] = Plasma stability assay; type: in vitro ADME, rat
Description: as §1

5-HT6 receptor, sequence (P50406 whole entry): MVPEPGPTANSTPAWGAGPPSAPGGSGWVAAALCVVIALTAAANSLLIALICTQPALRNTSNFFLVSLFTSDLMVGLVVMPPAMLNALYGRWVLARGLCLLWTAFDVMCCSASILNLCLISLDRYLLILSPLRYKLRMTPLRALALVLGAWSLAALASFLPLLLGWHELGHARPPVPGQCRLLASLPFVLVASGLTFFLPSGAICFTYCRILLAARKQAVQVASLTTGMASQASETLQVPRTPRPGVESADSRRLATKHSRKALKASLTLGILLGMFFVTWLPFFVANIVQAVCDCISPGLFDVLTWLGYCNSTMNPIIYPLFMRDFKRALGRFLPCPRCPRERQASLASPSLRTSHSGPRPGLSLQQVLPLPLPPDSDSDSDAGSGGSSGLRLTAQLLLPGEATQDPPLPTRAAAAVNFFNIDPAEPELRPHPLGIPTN

Cc1c(OCc2ccccc2)cccc1N1CCN(CCOC(=O)CCCN)CC1.Cl.Cl [Compound 16, 1-(2-((4-Ammoniobutanoyl)oxy)ethyl)-4-(3-(benzyloxy)-2-methylphenyl)piperazin-1-ium Dichloride]
[%] of 10 μM GABA activity [1]: 24.7% and 24.7 ± 1.5% | % of the compound remaining [2]: 98.21% | Ki [3]: 16 ± 0.4 nM | % compound remaining (brain homogenate) ([4]; 0 min): 100 ± 0.3% | % compound remaining (brain homogenate) ([4]; 15 min): 97.81 ± 2.1% | % compound remaining (brain homogenate) ([4]; 30 min): 92.56 ± 1.9% | % compound remaining (brain homogenate) ([4]; 60 min): 87.12 ± 3.2% | % compound remaining (brain homogenate) ([4]; 120 min): 49.73 ± 2.4% | % compound remaining (brain homogenate) ([4]; 240 min): 25.34 ± 1.6% | % compound remaining (rat plasma, 37 °C) ([5]; 0 min): 100 ± 0.1% | % compound remaining (rat plasma, 37 °C) ([5]; 15 min): 97.21 ± 0.8% | % compound remaining (rat plasma, 37 °C) ([5]; 30 min): 90.35 ± 1.4% | % compound remaining (rat plasma, 37 °C) ([5]; 60 min): 79.65 ± 2.5% | % compound remaining (rat plasma, 37 °C) ([5]; 120 min): 45.37 ± 2.2% | % compound remaining (rat plasma, 37 °C) ([5]; 240 min): 21.46 ± 1.2%
